Measurements from ChEMBL document CHEMBL3885861, “Open TG-GATES”.

Organism: Rattus norvegicus
Assay: Open TG-GATES - Regimen: Single
Type: toxicity, organism-based, Sprague-Dawley
Design: regimen Single, gender Male, age 6 weeks
Details: in vivo, po, 100 mg/kg, route gavage, dose level Low; for APTT / Bas / Eos / Fbg / Hb / Ht / Lym / MCV / Mono / Neu / PT / Plat / RBC / Ret / WBC / MCH / MCHC: tissue Blood; for KIDNEY_L / KIDNEY_R / KIDNEY_TOTAL: tissue Kidney; for LIVER: tissue Liver; for ALP / ALT / AST / BUN / CRE / Ca / DBIL / GLC / IP / K / LDH / Na / PL / RALB / TBIL / TC / TG / TP / gamma-GTP: tissue Plasma

Work on `O=C(O)c1cn(C2CC2)c2cc(N3CCNCC3)c(F)cc2c1=O` [CIPROFLOXACIN] yielded a TERMINAL_BW (3 h) of 185.5 g, an APTT (3 h) of 16.8 s and a Bas (3 h) of 0%. It also gave an Eos (3 h) of 0.8%, a Fbg (3 h) of 213 mg/dL and a Hb (3 h) of 12.9 g/dL. It also gave a Ht (3 h) of 38.6%, a Lym (3 h) of 78.4% and an MCV (3 h) of 67.5 fL. For the same molecule, the Mono (3 h) was 8.4%, the Neu (3 h) was 12.8% and the PT (3 h) was 12.3 s. The Plat (3 h) was 104.3 x10_4/uL, the RBC (3 h) was 572.8 x10_4/ul and the Ret (3 h) was 10.8%. The WBC (3 h) was 106 x10_2/uL, the KIDNEY_L (3 h) was 0.8 g and the KIDNEY_R (3 h) was 0.9 g. The KIDNEY_TOTAL (3 h) was 1.7 g, the LIVER (3 h) was 9.1 g and the ALP (3 h) was 856.2 IU/L. For the same molecule, the ALT (3 h) was 35 IU/L, the AST (3 h) was 68.6 IU/L and the BUN (3 h) was 12.4 mg/dL. The CRE (3 h) was 0.5 mg/dL, the Ca (3 h) was 11.2 mg/dL and the DBIL (3 h) was 0.018 mg/dL. The GLC (3 h) was 192 mg/dL, the IP (3 h) was 9.8 mg/dL and the K (3 h) was 4.9 meq/L. For the same molecule, the LDH (3 h) was 81.4 IU/L, the Na (3 h) was 139 meq/L and the PL (3 h) was 144.4 mg/dL. For the same molecule, the RALB (3 h) was 3.7 g/dL, the TBIL (3 h) was 0.4 mg/dL and the TC (3 h) was 84.6 mg/dL. The TG (3 h) was 45.6 mg/dL, the TP (3 h) was 5.5 g/dL and the gamma-GTP (3 h) was 1.4 IU/L. For the same molecule, the TERMINAL_BW (6 h) was 179.2 g, the APTT (6 h) was 17.2 s and the Bas (6 h) was 0%. For the same molecule, the Eos (6 h) was 0.4%, the Fbg (6 h) was 216.6 mg/dL and the Hb (6 h) was 13 g/dL. For the same molecule, the Lym (6 h) was 73%, the MCH (6 h) was 21.4 pg and the MCHC (6 h) was 33.2%. For the same molecule, the MCV (6 h) was 64.5 fL, the Mono (6 h) was 6% and the PT (6 h) was 12.4 s. For the same molecule, the Plat (6 h) was 102.1 x10_4/uL, the RBC (6 h) was 608.4 x10_4/ul and the Ret (6 h) was 10.5%. The WBC (6 h) was 119.3 x10_2/uL, the KIDNEY_L (6 h) was 0.9 g and the KIDNEY_R (6 h) was 0.9 g. The KIDNEY_TOTAL (6 h) was 1.7 g, the LIVER (6 h) was 8.1 g and the ALP (6 h) was 779.4 IU/L. It also gave an ALT (6 h) of 33.6 IU/L, an AST (6 h) of 70.4 IU/L and a BUN (6 h) of 10.8 mg/dL. It also gave a CRE (6 h) of 0.5 mg/dL, a Ca (6 h) of 11.4 mg/dL and a DBIL (6 h) of 0.05 mg/dL. For the same molecule, the GLC (6 h) was 182.4 mg/dL, the IP (6 h) was 10.3 mg/dL and the K (6 h) was 5.4 meq/L. The LDH (6 h) was 98 IU/L, the Na (6 h) was 138.8 meq/L and the PL (6 h) was 128.2 mg/dL. For the same molecule, the RALB (6 h) was 3.9 g/dL, the TBIL (6 h) was 0.3 mg/dL and the TC (6 h) was 71.4 mg/dL. The TG (6 h) was 39.8 mg/dL, the TP (6 h) was 5.6 g/dL and the gamma-GTP (6 h) was 1 IU/L. It also gave a TERMINAL_BW (9 h) of 174.2 g, an APTT (9 h) of 16.2 s and a Bas (9 h) of 0%. For the same molecule, the Eos (9 h) was 1%, the Fbg (9 h) was 215 mg/dL and the Hb (9 h) was 13.5 g/dL. The Lym (9 h) was 77.2%, the MCV (9 h) was 67.9 fL and the Mono (9 h) was 5.2%. The Neu (9 h) was 17%, the PT (9 h) was 11.5 s and the Plat (9 h) was 100.5 x10_4/uL. The RBC (9 h) was 605.8 x10_4/ul, the Ret (9 h) was 9.9% and the WBC (9 h) was 77 x10_2/uL. It also gave a KIDNEY_L (9 h) of 0.9 g, a KIDNEY_R (9 h) of 0.9 g and a KIDNEY_TOTAL (9 h) of 1.8 g. The LIVER (9 h) was 7.3 g, the ALP (9 h) was 813.2 IU/L and the ALT (9 h) was 33.6 IU/L. For the same molecule, the AST (9 h) was 68.8 IU/L, the BUN (9 h) was 11 mg/dL and the CRE (9 h) was 0.5 mg/dL. The Ca (9 h) was 10.9 mg/dL, the DBIL (9 h) was 0.066 mg/dL and the GLC (9 h) was 190 mg/dL. It also gave an IP (9 h) of 11.5 mg/dL, a K (9 h) of 4.9 meq/L and an LDH (9 h) of 94.2 IU/L. The Na (9 h) was 139.6 meq/L, the PL (9 h) was 142.4 mg/dL and the RALB (9 h) was 3.8 g/dL. The TBIL (9 h) was 0.2 mg/dL, the TC (9 h) was 88.4 mg/dL and the TP (9 h) was 5.6 g/dL. The gamma-GTP (9 h) was 1.4 IU/L, the TERMINAL_BW (24 h) was 191.7 g and the Bas (24 h) was 0%. The Eos (24 h) was 1%, the Fbg (24 h) was 218 mg/dL and the Hb (24 h) was 13.5 g/dL. It also gave a Ht (24 h) of 40.5%, a Lym (24 h) of 77% and an MCH (24 h) of 22.1 pg. It also gave an MCHC (24 h) of 33.4%, an MCV (24 h) of 66.3 fL and a Mono (24 h) of 7%. For the same molecule, the Neu (24 h) was 15%, the Plat (24 h) was 105.4 x10_4/uL and the RBC (24 h) was 610.4 x10_4/ul. It also gave a Ret (24 h) of 9.2%, a WBC (24 h) of 102.8 x10_2/uL and a KIDNEY_L (24 h) of 0.9 g. The KIDNEY_R (24 h) was 0.9 g, the KIDNEY_TOTAL (24 h) was 1.7 g and the LIVER (24 h) was 8 g. It also gave an ALP (24 h) of 953.6 IU/L, an ALT (24 h) of 40.4 IU/L and an AST (24 h) of 74.6 IU/L. It also gave a BUN (24 h) of 17.2 mg/dL, a CRE (24 h) of 0.5 mg/dL and a Ca (24 h) of 11.2 mg/dL. It also gave a DBIL (24 h) of 0.058 mg/dL, a GLC (24 h) of 191.6 mg/dL and an IP (24 h) of 9.2 mg/dL. It also gave a K (24 h) of 4.7 meq/L, a Na (24 h) of 139.4 meq/L and a PL (24 h) of 161.4 mg/dL. The RALB (24 h) was 3.8 g/dL, the TBIL (24 h) was 0.3 mg/dL and the TC (24 h) was 100 mg/dL. For the same molecule, the TP (24 h) was 5.9 g/dL.
